We go through 67 compounds from patent US10940139B2, “Compounds that interact with the Ras superfamily for the treatment of cancers, inflammatory diseases, rasopathies, and fibrotic disease” (Shy Therapeutics LLC, priority 2017, dated 2021).

The term IC50 denotes the concentration at which inhibition is half-maximal. Low readings indicate inhibition by little substance, high ones a need for much substance. Broadly, the inhibition is the share of the control response that was lost under treatment. Read a low inhibition as a response near the control.

The subject of the first assay is MIA-PACA2 pancreatic cancer cell lines. The experiment in a line: Cell proliferation assay (CellTiter 96 AQueous One). The class given is cell-based. To be noted: Homo sapiens, MIA PaCa-2; MIA-PACA2, same assay as the % inhibition (standard conditions). As for the experimental part: Cell lines: Tumor-derived pancreatic cancer cell lines MIA-PACA2 were purchased from ATCC and grown in complete DMEM-High Glucose medium supplemented with penicillin (100 U/mL), streptomycin (100 μg/mL), and 10% heat-inactivated FBS at 37° C. in a humidified incubator with 5% CO2.
Method: Cells are plated at 1000 cells/well density in 96-wells plate, starved ON, and the next day tested small molecules are added to the cells in the final concentration of 30 μM with 0.3% DMSO 3 hours prior to 10% FBS addition. After serum addition cells are incubated for 6 days at 37° C. in a humidified incubator with 5% CO2. For IC50 value determination, serial dilutions of compounds were added to cells under the same conditions.
Assay: At the end of the incubation period, cell cultures are tested using the CellTiter 96® AQueous One Solution Cell Proliferation Assay kit (Promega Corporation, Madison, Wis.) according to the manufacturer specifications. Briefly, assay is performed by adding 20 μl of the CellTiter 96 Aqueous One Solution Reagent directly to culture wells, followed by for 1-4 hours incubation at 37° C. in a humidified incubator with 5% CO2. At the end of incubation time, absorbance at 492 nm is recorded with the 96-well plate reader Eppendorf AF2200, and degree of small molecule-dependent proliferation inhibition is calculated from raw data assuming No Serum cells value as 100%.
For `O=C(c1csc2c(O)nc(-c3ccccn3)nc12)N1CCN(c2ccccc2)CC1` [drawing 1569], the IC50 fell in the range of 100 to 500 nM. Same read-out and setting: with `COc1cccc(N2CCN(C(=O)c3csc4c(O)nc(-c5ccccn5)nc34)CC2)c1` [drawing 1632] the figure was 100 to 500 nM; with `Oc1nc(-c2ccccn2)nc2c(Br)csc12` [drawing 1562], 501 to 1000 nM; with `COCC(C)Nc1nc(-c2ccccn2)nc2sc(C)c(-c3ccccc3)c12` (centres unmarked) [drawing 1510], > 1000 nM.

The same assay, now with this note: Homo sapiens, MIA PaCa-2; at 30 μM, MIA-PACA2.
`Cc1sc2nc(-c3ccccn3)nc(NCCCO)c2c1-c1ccccc1` [drawing 1516] registered an inhibition at 30 µM of 76 to 100%. Same read-out and setting: with `COc1ccnc(-c2nc(O)c3c(C(F)(F)F)csc3n2)c1` [drawing 1709] the figure was 76 to 100%. `COc1cc(N2CCN(C(=O)c3csc4c(O)nc(-c5ccccn5)nc34)CC2)cc(OC)c1OC` [drawing 1651]: the inhibition at 30 µM lay in the range of 51 to 75%. Compound `O=C(c1csc2c(O)nc(-c3ccccn3)nc12)N1CCN(c2ccccc2)CC1` [drawing 1569] registered an inhibition at 30 µM of 76 to 100%.

Take `O=C(Nc1nnc(-c2ccccn2)[nH]1)C1Cc2cc(Cl)ccc2O1` (centres unmarked) [drawing 1459]: the inhibition at 30 µM fell in the range of 76 to 100%. Same read-out and setting: with `COc1ccc(F)cc1-c1csc2c(O)nc(-c3ccccn3)nc12` [drawing 1750] the figure was 76 to 100%; with `COc1cccc(N2CCN(C(=O)c3csc4c(O)nc(-c5ccccn5)nc34)CC2)c1` [drawing 1632], 76 to 100%.

In the case of `COC(=O)c1cc(NCc2nc(CC(C)C)no2)ccc1Cl` [drawing 1518], the inhibition at 30 µM fell in the range of 76 to 100%. Same read-out and setting: as for `Oc1nc(-c2ccccn2)nc2c1CCCN2` [drawing 1542], the figure is 1 to 25%; as for `O=C(c1csc2c(O)nc(-c3ccccn3)nc12)N1CCC(N2CCOCC2)CC1` [drawing 1567], 1 to 25%. The compound `Cn1nnc2ccc(-c3csc4c(O)nc(-c5ccccn5)nc34)cc21` [drawing 1737] returned an inhibition at 30 µM of 76 to 100%. On the same count and under the same terms, with `O=C(c1csc2c(O)nc(-c3ccccn3)nc12)N1CCN(c2ccncc2)CC1` [drawing 1570] the figure was 76 to 100%; with `Cc1cncc(-c2csc3c(O)nc(-c4ccccn4)nc23)c1` [drawing 1789], 76 to 100%; with `Cc1cccc(OCC(=O)Nc2nnc(-c3ccccn3)[nH]2)c1` [drawing 1464], 51 to 75%. `CCOc1cc(S(=O)(=O)N(Cc2ccccc2)Cc2ccccc2)c(OCC)cc1C` [drawing 1529] came in with an inhibition at 30 µM of 76 to 100%.

In turn, `Cc1sc2nc(-c3ccccn3)nc(NCCc3nccn3C)c2c1-c1ccccc1` [drawing 1597] came in with an inhibition at 30 µM of 76 to 100%. As to `O=C(Cc1cccc(F)c1)Nc1nc(-c2ccccn2)cs1` [drawing 1484], the inhibition at 30 µM fell in the range of 76 to 100%.

In turn, `COc1cc(CCNC(=O)c2csc3nc(-c4ccccn4)nc(N4CCOCC4)c23)ccn1` [drawing 1641] had an inhibition at 30 µM of 51 to 75%. The same measure, in the same setting: with `Oc1nc(-c2ccccn2)nc2sc3c(c12)CCNC3` [drawing 1727] the figure was 76 to 100%; with `c1ccc(-c2csc3nc(-c4ccccn4)nc(N4CCN(CCN5CCCC5)CC4)c23)cc1` [drawing 1616], 76 to 100%; with `Nc1nc(-c2ccccn2)nc2c(Br)csc12` [drawing 1768], 25 to 50%.

For `Brc1csc2nc(-c3ccccn3)nc(N3CCOCC3)c12` [drawing 1587], the inhibition at 30 µM was in the range of 25 to 50%. The compound `O=C(Nc1nnc(-c2ccccn2)[nH]1)C1CCCN(c2ncccn2)C1` (centres unmarked) [drawing 1426] came in with an inhibition at 30 µM of 76 to 100%. Still for that read-out and setting: with `COc1ccc(COCC(=O)N2CCCc3c(O)nc(-c4ccccn4)nc32)cc1` [drawing 1544] the figure was 76 to 100%; with `O=C(Nc1nnc(-c2ccccn2)[nH]1)c1ccn(-c2ccccc2)n1` [drawing 1394], 76 to 100%; with `CN(Cc1cnn(C)c1)c1nc(-c2ccccn2)nc2scc(-c3ccccc3)c12` [drawing 1604], 76 to 100%. As to `COc1ccc(C2CN(C(=O)c3csc4c(O)nc(-c5ccccn5)nc34)CCO2)cc1` (centres unmarked) [drawing 1661], the inhibition at 30 µM fell in the range of 76 to 100%. Still for that read-out and setting: with `CN(CC(=O)Nc1nnc(-c2ccccn2)[nH]1)Cc1ccccc1` [drawing 1449] the figure was 51 to 75%; with `Oc1nc(-c2ccccn2)nc2c(Br)csc12` [drawing 1562], 76 to 100%. Still for that read-out and setting: as for `O=S1(=O)CCC(Nc2nc(-c3ccccn3)nc3scc(-c4ccccc4)c23)C1` (centres unmarked) [drawing 1615], the figure is 76 to 100%. Still for that read-out and setting: as for `Nc1nc(O)c2scc(C(=O)NCCc3cccnc3)c2n1` [drawing 1560], the figure is 1 to 25%; as for `COc1ccc(COCC(=O)Nc2nnc(-c3ccccn3)[nH]2)cc1` [drawing 1471], 1 to 25%. `Cc1nc(-c2ccccn2)nc(O)c1CCC(=O)Nc1cccc(OCC(=O)N2CCCC2)c1` [drawing 1507] registered an inhibition at 30 µM of 1 to 25%.

In turn, `c1ccc(-c2csc3nc(-c4ccccn4)nc(N4CCN(Cc5cccnc5)CC4)c23)cc1` [drawing 1602] had an inhibition at 30 µM of 76 to 100%. As to `O=C(CCc1cncnc1)Nc1nc(-c2ccccn2)nc2sccc12` [drawing 1767], the inhibition at 30 µM lay within 76 to 100%. Still for that read-out and setting: as for `N#Cc1ccc(CC(=O)Nc2ccnc(-c3ccccn3)n2)cc1` [drawing 1586], the figure is 76 to 100%; as for `COc1ccccc1C1CN(C(=O)c2csc3c(O)nc(-c4ccccn4)nc23)CCO1` (centres unmarked) [drawing 1660], 76 to 100%. The same measure, in the same setting: as for `c1ccc(-c2nc(NCC3CCCO3)c3ccsc3n2)nc1` (centres unmarked) [drawing 1591], the figure is 76 to 100%; as for `COCCCCNC(=O)c1csc2nc(-c3ccccn3)nc(N3CCS(=O)(=O)CC3)c12` [drawing 1702], 1 to 25%; as for `Cc1ccc(O)c(CN(C)Cc2nccn2Cc2ccccc2)n1` [drawing 1521], 76 to 100%. Still for that read-out and setting: as for `O=C(Nc1nnc(-c2ccccn2)[nH]1)c1ccc(NC(=O)c2ccccn2)cc1` [drawing 1440], the figure is 25 to 50%. Take `CC(C)C(=O)Nc1nc(CC(=O)Nc2nnc(-c3ccccn3)[nH]2)cs1` [drawing 1453]: the inhibition at 30 µM fell in the range of 76 to 100%. In turn, `O=C(NCCc1cncs1)c1csc2nc(-c3ccccn3)nc(N3CCOCC3)c12` [drawing 1643] had an inhibition at 30 µM of 76 to 100%. Still for that read-out and setting: as for `Oc1nc(-c2ccccn2)nc2c(-c3ccc(OC4CCCC4)cc3)csc12` [drawing 1739], the figure is 76 to 100%; as for `CNC(=O)CN1CCN(c2nc(-c3ccccn3)nc3scc(-c4ccccc4)c23)CC1` [drawing 1607], 1 to 25%.

On to `Oc1nc(-c2ccccn2)nc2c1ncn2-c1ccccc1` [drawing 1583], for which the inhibition at 30 µM was 25 to 50%.

Compound `COc1cc(-c2csc3c(O)nc(-c4ccccn4)nc23)cnc1C(F)(F)F` [drawing 1760] returned an inhibition at 30 µM of 76 to 100%. The same measure, in the same setting: as for `c1ccc(-c2csc3nc(-c4ccccn4)nc(N4CCOCC4)c23)cc1` [drawing 1618], the figure is 76 to 100%; as for `CC(=O)N1CCN(c2nc(-c3ccccn3)nc3scc(-c4ccccc4)c23)CC1` [drawing 1626], 76 to 100%; as for `O=C(CN1CCN(c2nc(-c3ccccn3)nc3scc(-c4ccccc4)c23)CC1)N1CCCC1` [drawing 1620], 76 to 100%. Still for that read-out and setting: with `O=C(NCCc1ccnc(O)n1)c1csc2nc(-c3ccccn3)nc(N3CCOCC3)c12` [drawing 1774] the figure was 1 to 25%; with `CS(=O)(=O)N1CCCc2cc(C(=O)N3CCCc4c(O)nc(-c5ccccn5)nc43)ccc21` [drawing 1547], 76 to 100%; with `O=C(c1cc2nc(-c3ccccn3)nc(O)c2s1)N1CCN(c2ccccc2)CC1` [drawing 1717], 76 to 100%. Same read-out and setting: as for `COc1ccc(CCC(=O)Nc2nnc(-c3ccccn3)[nH]2)cc1` [drawing 1398], the figure is 51 to 75%. As for `COCCCn1ccc(Nc2cc(C)nc(-c3ccccn3)n2)n1` [drawing 1512], the inhibition at 30 µM fell in the range of 25 to 50%. The same measure, in the same setting: as for `COC(=O)C(C)CN(Cc1cc(Br)ccc1[N+](=O)[O-])C1CC1` (centres unmarked) [drawing 1534], the figure is 1 to 25%; as for `Nc1nc(O)c2scc(Br)c2n1` [drawing 1557], 1 to 25%; as for `COc1ncc(CCNC(=O)c2csc3nc(-c4ccccn4)nc(N4CCOCC4)c23)cn1` [drawing 1642], 76 to 100%. Still for that read-out and setting: with `O=C(c1csc2c(O)nc(-c3ccccn3)nc12)N1CCNC(Cc2ccccc2)C1` (centres unmarked) [drawing 1671] the figure was 76 to 100%; with `CCOC(=O)NC1CCN(C(=O)c2csc3c(O)nc(-c4ccccn4)nc23)CC1` [drawing 1574], 51 to 75%; with `O=C(c1csc2c(O)nc(-c3ccccn3)nc12)N1CCNC(Cc2cccc(F)c2)C1` (centres unmarked) [drawing 1708], 25 to 50%.

The compound `COCC(C)Nc1nc(-c2ccccn2)nc2sc(C)c(-c3ccccc3)c12` (centres unmarked) [drawing 1510] showed an inhibition at 30 µM of 76 to 100%.

In turn, `CS(=O)(=O)N1CCCc2cc(C(=O)Nc3nnc(-c4ccccn4)[nH]3)ccc21` [drawing 1469] came in with an inhibition at 30 µM of 76 to 100%. Same read-out and setting: as for `COc1ccc(CCC(=O)N2CCCc3c(O)nc(-c4ccccn4)nc32)cc1` [drawing 1545], the figure is 76 to 100%; as for `O=C(c1csc2c(O)nc(-c3ccccn3)nc12)N1CCOC(c2cccc(F)c2)C1` (centres unmarked) [drawing 1635], 76 to 100%. Still for that read-out and setting: with `COc1ccnc(-c2nc(O)c3c(C#N)csc3n2)c1` [drawing 1675] the figure was 76 to 100%; with `COc1ccc(CCNC(=O)c2csc3nc(-c4ccccn4)nc(N4CCS(=O)(=O)CC4)c23)cn1` [drawing 1729], 51 to 75%.
